Each structure is given as a SMILES string.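 Dose response: 5 concentrations. Exposure: 48 h. Format: 96-well plates. Endpoint: linear interpolation; highest concentration if not reached. At the GI50, growth is halved.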 Active and inactive are the calls of the source. Cut-off read from the data, not from the text of the source: active = GI50 up to about 1.1 µM and inactive = higher.

Some test systems named below: HT-29; UACC-257; MOLT-4; EKVX; HCC 2998; SK-OV-3; HCT-15; HOP-62; HL-60; SN12C; RXF 393; SNB-19; NCI-H522; NCI-H226; UO-31.
What all share (assay): NCI-60 cell line screen, 48 h

With `COc1ccc2c(c1)C1(C=N2)CCN(C(C)=O)CC1`, the GI50 in the experiment on HT-29 was > 100 µM (inactive); with UACC-257, > 100 µM (inactive); in the experiment on MOLT-4, 82 µM (inactive); with EKVX, > 100 µM (inactive); in the experiment with HCC 2998 it was > 100 µM (inactive); in the experiment on SK-OV-3, > 100 µM (inactive). Also, the GI50 was more than 100 µM with HCT-15, > 100 µM (inactive) in the experiment with HOP-62 and > 100 µM (inactive) with HL-60.

In the case of `CC(C(=O)c1ccccc1)C1(O)C(=O)Nc2ccccc21` (stereo unspecified), the GI50 in the experiment with HT-29, with SN12C, in the experiment with UACC-257, in the experiment with RXF 393, with MOLT-4 and in the experiment with EKVX was > 100 µM (inactive) in each case. Further, the GI50 in the experiment on SNB-19, in the experiment with NCI-H522, with HCC 2998, in the experiment with NCI-H226, in the experiment with UO-31 and with SK-OV-3 was > 100 µM (inactive) in each case. Also, the values for the GI50 in the experiment with HCT-15 and in the experiment on HOP-62 were more than 100 µM and > 100 µM (inactive), respectively.

On to `C=CCNC1=C(C(=O)OCC)C(=O)CO1`, for which the GI50 with HT-29, in the experiment on SN12C, in the experiment on UACC-257, in the experiment with RXF 393, with MOLT-4 and in the experiment on EKVX was > 100 µM (inactive) each time. Also, the GI50 in the experiment on SNB-19 is > 100 µM (inactive); in the experiment with NCI-H522 it was > 100 µM (inactive); with HCC 2998, > 100 µM (inactive); in the experiment with NCI-H226, > 100 µM (inactive); in the experiment on UO-31, > 100 µM (inactive); with HCT-15, more than 100 µM. The GI50 in the experiment on HL-60 is > 100 µM (inactive).

For the compound `CC(=O)Nc1ccc(C(=O)NN2C(=O)C(Cl)C2c2ccc(O)cc2)cc1` (stereo unspecified), the GI50 was > 100 µM (inactive) in the experiment with HT-29; > 100 µM (inactive) in the experiment with SN12C; > 100 µM (inactive) in the experiment on UACC-257; 61.7 µM (inactive) in the experiment on RXF 393; > 100 µM (inactive) with MOLT-4; > 100 µM (inactive) with EKVX. The GI50 in the experiment with SNB-19 is > 100 µM (inactive); with NCI-H522, > 100 µM (inactive); with NCI-H226 it was > 100 µM (inactive); in the experiment with UO-31, > 100 µM (inactive); with SK-OV-3, > 100 µM (inactive); in the experiment with HCT-15 it was more than 100 µM. Besides, the GI50 is 57.9 µM (inactive) in the experiment on HOP-62 and > 100 µM (inactive) with HL-60.

As to `N#CC1=C(N)N2C(=O)/C(=C/c3ccccc3)SC2C(c2nc3ccccc3[nH]2)=C1c1ccccc1` (stereo unspecified), the GI50 with HT-29 is 4.03 µM (inactive); in the experiment on SN12C, 2.91 µM (inactive); in the experiment with UACC-257 it was 4.55 µM (inactive); with MOLT-4, 2.4 µM (inactive); with EKVX, 2.23 µM (inactive); in the experiment with SNB-19 it was 3.4 µM (inactive). Also, the GI50 was 1.86 µM (inactive) in the experiment with NCI-H522; 1.57 µM (inactive) in the experiment with HCC 2998; 1.93 µM (inactive) with NCI-H226; 1.93 µM (inactive) in the experiment on UO-31; 1.68 µM (inactive) in the experiment on SK-OV-3; 2.95 µM in the experiment on HCT-15. Moreover, the figures for the GI50 with HOP-62 and with HL-60 were 2.44 µM (inactive) and 2.31 µM (inactive), respectively.

As for `O=C(O)CCc1coc2ccc(O)cc12`, the GI50 in the experiment on HT-29, in the experiment on SN12C, in the experiment on UACC-257, in the experiment on RXF 393, with MOLT-4 and in the experiment on EKVX was > 100 µM (inactive) each time. Further, the GI50 with SNB-19 is > 100 µM (inactive); in the experiment on HCC 2998 it was > 100 µM (inactive); in the experiment with SK-OV-3, > 100 µM (inactive); in the experiment on HCT-15 it was more than 100 µM; in the experiment with HOP-62 it was > 100 µM (inactive); with HL-60, > 100 µM (inactive).

As for `C=CCNC(=S)N1CC(C)C(=O)Nc2cc(Cl)ccc21` (stereo unspecified), the GI50 in the experiment with HT-29, in the experiment with SN12C, in the experiment on UACC-257, in the experiment on RXF 393, with MOLT-4 and in the experiment with EKVX was > 100 µM (inactive) in each case. For the same compound, the GI50 in the experiment on SNB-19 is > 100 µM (inactive); with NCI-H522, > 100 µM (inactive); in the experiment with NCI-H226, 54.2 µM (inactive); in the experiment on UO-31 it was > 100 µM (inactive); with SK-OV-3, > 100 µM (inactive); with HCT-15, more than 100 µM. In addition, the GI50 in the experiment with HOP-62 and in the experiment on HL-60 was > 100 µM (inactive) throughout.

As to `CCc1cc(Cc2ccc(C)c(NC(=O)C(=O)C3C(=O)NC(=O)NC3=O)c2CC)cc(C)c1NC(=O)C(=O)C1C(=O)NC(=O)NC1=O`, the GI50 was > 100 µM (inactive) in the experiment on UACC-257; > 100 µM (inactive) in the experiment on RXF 393; 93.5 µM (inactive) with MOLT-4; > 100 µM (inactive) in the experiment with EKVX; > 100 µM (inactive) with SNB-19; > 100 µM (inactive) in the experiment with NCI-H522. The GI50 in the experiment on HCC 2998 is > 100 µM (inactive); in the experiment with UO-31, > 100 µM (inactive); in the experiment with SK-OV-3, > 100 µM (inactive); with HCT-15, more than 100 µM; with HOP-62 it was > 100 µM (inactive); with HL-60, > 100 µM (inactive).

As to `O=c1/c(=C/c2ccccc2F)sc2nc3ccccc3n12`, the GI50 with HT-29, in the experiment on SN12C, in the experiment with UACC-257, in the experiment on RXF 393, in the experiment on MOLT-4 and in the experiment with EKVX was > 100 µM (inactive) in each case. Also, the GI50 is > 100 µM (inactive) in the experiment with SNB-19; 92.7 µM (inactive) with NCI-H522; > 100 µM (inactive) in the experiment with HCC 2998; > 100 µM (inactive) with NCI-H226; > 100 µM (inactive) with UO-31; more than 100 µM with HCT-15. The GI50 in the experiment with HL-60 is > 100 µM (inactive).

With `CC(=O)Nc1ccccc1-c1cnc2ccccc2n1`, the GI50 in the experiment with HT-29, in the experiment on SN12C, with UACC-257, in the experiment with MOLT-4, with EKVX and with SNB-19 was > 100 µM (inactive) throughout. Also, the GI50 was > 100 µM (inactive) in the experiment with NCI-H522; > 100 µM (inactive) in the experiment with HCC 2998; > 100 µM (inactive) in the experiment with NCI-H226; > 100 µM (inactive) in the experiment with SK-OV-3; more than 100 µM in the experiment with HCT-15; > 100 µM (inactive) in the experiment with HOP-62. In addition, the GI50 in the experiment on HL-60 was > 100 µM (inactive).

As for `c1ccc2[nH]c(-c3nc4ccccc4o3)nc2c1`, the GI50 in the experiment with HT-29 is > 100 µM (inactive); in the experiment with SN12C, > 100 µM (inactive); in the experiment with UACC-257, > 100 µM (inactive); in the experiment with MOLT-4, > 100 µM (inactive); in the experiment on EKVX, 8.65 µM (inactive); in the experiment with NCI-H522 it was 35.1 µM (inactive). Besides, the GI50 was > 100 µM (inactive) with HCC 2998; 86.3 µM (inactive) in the experiment with NCI-H226; > 100 µM (inactive) in the experiment on UO-31; > 100 µM (inactive) with SK-OV-3; more than 100 µM in the experiment with HCT-15; > 100 µM (inactive) with HOP-62. The GI50 in the experiment on HL-60 is 17.6 µM (inactive).
